Experimental data taken from US4463004A, “Dioxazabicyclic derivatives” (Delalande S.A., priority 1981, dated 1984).

Assays:
[1] = system: mice; test: analgesia test using phenylbenzoquinone; assay type: in vivo; conditions: Mus musculus, ip, read-out: Analgesia test ED 50
Description: Exp. Biol. Med. 95, 729(1957).
The compounds of the invention were administered intraperitoneally.

[2] = Acute toxicity, intraperitoneal (Miller and Tainter); conditions: mouse, in vivo, ip; mice, i.p.; read-out: Acute toxicity LD 50
Description: Acute toxicity was evaluated intraperitoneally in mice according to the method described by MILLER and TAINTER in Proc. Soc. Exp. Biol. Med. 57, 261 (1944).

Row | SMILES | ED50 [1] [mg/kg] | LD50 [2] [mg/kg]
1 | c1ccc2cc(C34CNCC(CO3)O4)ccc2c1 (stereo not drawn) [compound 39] | 8 | 310
2 | N#Cc1ccc(C23CNCC(CO2)O3)cc1 (stereo not drawn) [compound 19] | 19 | 280
3 | Fc1ccc(C23CCCNCC(CO2)O3)cc1 (stereo not drawn) [compound 32] | 9 | 140
4 | c1ccc(CN2CC3COC(C4CCCCC4)(C2)O3)cc1 (stereo not drawn) [compound 30] | 26 | > 400
5 | C1C2CC3CC1CC(C14CNCC(CO1)O4)(C2)C3 (stereo not drawn) [compound 36] | 30 | 185
6 | O=[N+]([O-])c1ccc(C23CNCC(CO2)O3)cc1 (stereo not drawn) [compound 21] | 10 | 290
7 | O=C(c1ccccc1)c1cccc(C23CNCC(CO2)O3)c1 (stereo not drawn) [compound 59] | 13.5 | 155
8 | COc1ccc2cc(C34CNCC(CO3)O4)ccc2c1 (stereo not drawn) [compound 56] | 21 | 240
9 | c1csc(C23CNCC(CO2)O3)c1 (stereo not drawn) [Code number 4] | 24 | > 400
10 | Fc1ccc(C23CNCC(CO2)O3)cc1 (stereo not drawn) [Code number 7, 5-parafluorophenyl-6,8-dioxa-3-azabicyclo [3.2.1] octane meleate] | 10 | 300
11 | c1cncc(C23CNCC(CO2)O3)c1 (stereo not drawn) [compound 48] | 58 | > 400
12 | O=C(O)c1ccc(C23CNCC(CO2)O3)cc1 (stereo not drawn) [compound 54] | 38 | > 400
13 | CC(C)(C)C12CNCC(CO1)O2 (stereo not drawn) [Code number 1] | 18 | 400
14 | c1cc(C23CNCC(CO2)O3)ccc1C1CCCCC1 (stereo not drawn) [compound 42] | 15 | > 400
15 | COc1ccccc1C12CNCC(CO1)O2 (stereo not drawn) [compound 14] | 8 | 300
16 | c1ccc2c(C34CNCC(CO3)O4)cccc2c1 (stereo not drawn) [compound 58] | 28 | 160
17 | CC(=O)Nc1ccc(C23CNCC(CO2)O3)cc1 (stereo not drawn) [compound 44] | 7 | 380
18 | c1ccc(-c2ccc(C34CNCC(CO3)O4)cc2)cc1 (stereo not drawn) [compound 40] | 24 | 310
19 | CCN1CC2COC(c3ccc(F)cc3)(C1)O2 (stereo not drawn) [compound 25] | 14 | 280
20 | Clc1ccc(C23CNCC(CO2)O3)cc1Cl (stereo not drawn) [compound 23] | 10 | 300
21 | Clc1cccc(C23CNCC(CO2)O3)c1 (stereo not drawn) [Code number 9] | 10 | 240
